US6127360A, “Diamine derivatives and pharmaceutical containing the same” (Kowa Co., Ltd., priority 1997, dated 2000)
pKi: −log10 of the molar value. Where a name gives a salt, the structure may show the parent alone.

How the values were obtained:
[1] = target: T1, isolated guinea pig ileum (Cavia porcellus, UniProt Q2NNR5); experiment: Anti-LTD4 action on isolated guinea pig ileum (LTD4 contraction); assay type: cell-based; conditions: 10^-5 M test compound; contraction caused by 10^-8 M LTD4; read-out: Anti-LTD4 action (inhibition rate)
T1 construct: An isolated guinea pig ileum was cut into about 2 cm lengths; from tissue; host or cells: guinea pig ileum
T1 sequence (Q2NNR5 1-340): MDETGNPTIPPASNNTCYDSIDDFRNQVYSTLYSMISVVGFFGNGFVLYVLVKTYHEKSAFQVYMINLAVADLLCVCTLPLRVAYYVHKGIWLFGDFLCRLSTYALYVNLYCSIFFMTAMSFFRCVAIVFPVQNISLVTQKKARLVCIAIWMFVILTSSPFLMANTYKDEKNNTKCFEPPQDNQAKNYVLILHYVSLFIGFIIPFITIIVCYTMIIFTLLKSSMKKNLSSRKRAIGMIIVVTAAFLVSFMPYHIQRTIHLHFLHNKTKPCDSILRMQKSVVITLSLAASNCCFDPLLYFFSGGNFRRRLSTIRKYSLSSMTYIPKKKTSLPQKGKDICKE
Experimental: Antihistaminic Action and Anti-LTD4 Action (In vitro Tests)
An isolated guinea pig ileum was cut into about 2 cm lengths. Each ileum piece was suspended in a 20-ml container filled with the Tyrode's buffer. An isotonic contractive response by histamine or LTD4 was recorded on a recorder. The Tyrode's buffer was controlled at 30° C., through which a mixed gas (95%O2 -5%CO2) was bubbled.

H1 receptor = target: T2, H1 receptor (Cavia porcellus, UniProt P31389); experiment: H1 Receptor Binding Inhibition Test ([3H]mepyramin, guinea pig cerebromembranous protein); conditions: read-out: H1 receptor dissociation constant (KD)
T2 construct: guinea pig cerebromembranous protein and a test compound; from tissue; host or cells: guinea pig brain membranes
Experimental: H1 Receptor Binding Inhibition Test
An ice-cold phosphate buffer was added to terminate the reaction, followed by immediate filtration through a Wattman CF/C filter. The filter was washed twice with 20 ml aliquots of the ice-cold buffer. The radio-activity of the residue was measured by a liquid scintillation counter. From a measurement value obtained without the addition of the test compound and measurements values obtained upon addition of the test compound at various concentrations, the dose-response of the inhibitory action of the test compound was measured and the 50% inhibitory concentration (IC50) was determined. Using the Cheng-Prusoff formula, a dissociation constant (KD) was calculated from the 50% inhibitory concentration (IC50).
In a binding assay, 10^4 M R(-)dimethindene was used for the measurement of a nonspecific binding.

LTD4 receptor = target: T3, LTD4 receptor (Cavia porcellus, UniProt Q2NNR5); experiment: LTD4 Receptor Binding Inhibition Test ([3H]LTD4, guinea pig pulmomembranous protein); conditions: read-out: LTD4 receptor dissociation constant (KD)
T3 construct: guinea pig pulm-omembranous protein and a test compound; from tissue; host or cells: guinea pig lung membranes
T3 sequence (Q2NNR5 1-340): T1 sequence (Q2NNR5 1-340)
Experimental: LTD4 Receptor Binding Inhibition Test
An ice-cold tris hydrochloride/sodium chloride buffer (10 mM/100 mM, pH 7.5) was added to terminate the reaction, followed by immediate filtration through a Wattman CF/C filter. The filter was washed twice with 20 ml aliquots of the ice-cold buffer. The radioactivity of the residue was measured by a liquid scintillation counter.
In a binding assay, […] LTD4 was used for the measurement of a nonspecific binding.

T2 sequence (P31389 whole entry): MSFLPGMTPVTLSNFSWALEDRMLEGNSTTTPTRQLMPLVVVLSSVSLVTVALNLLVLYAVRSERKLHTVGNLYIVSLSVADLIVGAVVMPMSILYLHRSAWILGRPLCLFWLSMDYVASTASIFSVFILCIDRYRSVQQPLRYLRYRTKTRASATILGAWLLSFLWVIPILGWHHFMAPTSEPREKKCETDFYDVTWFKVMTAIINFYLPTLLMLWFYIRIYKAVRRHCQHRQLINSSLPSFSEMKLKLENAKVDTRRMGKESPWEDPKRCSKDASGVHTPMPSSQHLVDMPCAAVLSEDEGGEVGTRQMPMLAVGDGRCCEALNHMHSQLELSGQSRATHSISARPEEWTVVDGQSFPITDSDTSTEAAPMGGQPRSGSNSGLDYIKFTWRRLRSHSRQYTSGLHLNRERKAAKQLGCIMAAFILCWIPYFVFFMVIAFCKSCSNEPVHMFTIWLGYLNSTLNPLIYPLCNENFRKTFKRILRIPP

| Structure (SMILES) | inhibition at 10 µM [1] [%] | pKi (H1 receptor) | pKi (LTD4 receptor) |
| --- | --- | --- | --- |
| CC1(C)C(=O)Nc2ccc(OCCN3CCN(Cc4ccc5ccccc5n4)CC3)cc21 [Example 1, 3,3-dimethyl-5-{2-[4-(2-quinolylmethyl)-1-piperazinyl]ethoxy}-2,3-dihydro-1H-indol-2-one] | 16 | 6.76 | 5.49 |
| Cc1ccc(OCCCCCN2CCN(Cc3ccc4ccccc4n3)CC2)c2c1NC(=O)C2(C)C [Example 9, 3,3,7-Trimethyl-4-{5-[4-(2-quinolylmethyl)-1-piperazinyl]pentyloxy}-2,3-dihydro-1H-indol-2-one] | 40 | 7.87 | 4.30 |
| Cc1ccc(OCCCN2CCN(Cc3nc4ccccc4n3C)CC2)c2c1NC(=O)C2(C)C [Example 26, 3,3,7-Trimethyl-4-{3-[4-(N-methylbenzoimidazol-2-ylmethyl)-1-piperazinyl]propoxy}-2,3-dihydro-1H-indol-2-one] | 27 | 7.44 | 5.48 |
| CC1(C)C(=O)Nc2c(OCCCN3CCN(Cc4ccc5ccccc5n4)CC3)cccc21 [Example 29, 3,3-Dimethyl-7-{3-[4-(2-quinolylmethyl)-1-piperazinyl]propoxy}-2,3-dihydro-1H-indol-2-one] | 48 | – | – |
| O=C1CCc2ccc(OCCN3CCN(Cc4ccc5ccccc5n4)CC3)cc2N1 [Example 32, 7-{2-[4-(2-Quinolylmethyl)-1-piperazinyl]ethoxy}-1,2,3,4-tetrahydroquinolin-2-one] | 20 | – | – |
| O=c1ccc2ccc(OCCCN3CCN(Cc4ccc5ccccc5n4)CC3)cc2[nH]1 [Example 36, 7-{3-[4-(2-Quinolylmethyl)-1-piperazinyl]propoxy}-1,2-dihydroquinolin-2-one] | 46 | 11.46 | 5.70 |
| O=c1ccc2ccc(OCCN3CCN(Cc4ccc5ccccc5n4)CC3)cc2[nH]1 [Example 39, 7-{2-[4-(2-Quinolylmethyl)-1-piperazinyl]ethoxy}-1,2-dihydroquinolin-2-one] | 30 | – | – |
| CC1(C)C(=O)Nc2cccc(OCCCN3CCN(Cc4ccc5ccccc5n4)CC3)c21 [Example 41, 3,3-Dimethyl-4-{3-[4-(2-quinolylmethyl)-1-piperazinyl]propoxy}-2,3-dihydro-1H-indol-2-one] | – | 8.36 | 5.42 |
| CC1(C)C(=O)Nc2cc(OCCCCCN3CCN(Cc4ccc5ccccc5n4)CC3)ccc21 [Example 42, 3,3-Dimethyl-6-{5-[4-(2-quinolylmethyl)-1-piperazinyl]pentyloxy}-2,3-dihydro-1H-indol-2-one] | 13 | – | – |
| O=C1CCc2cccc(OCCCCN3CCN(Cc4ccc5ccccc5n4)CC3)c2N1 [Example 44, 8-{4-[4-(2-Quinolylmethyl)-1-piperazinyl]butoxy}-1,2,3,4-tetrahydroquinolin-2-one] | 47 | – | – |
| O=C1CCc2cccc(OCCCN3CCN(Cc4ccc5ccccc5n4)CC3)c2N1 [Example 45, 8-{3-[4-(2-Quinolylmethyl)-1-piperazinyl]propoxy)-1,2,3,4-tetrahydroquinolin-2-one] | – | 8.47 | 5.70 |
| CC1(C)C(=O)Nc2ccc(OCCN3CCCN(Cc4ccc5ccccc5n4)CC3)cc21 [Example 50, 3,3-dimethyl-5-{2-[4-(2-quinolylmethyl)-1-homopiperazinyl]ethoxy}-2,3-dihydro-1H-indol-2-one dimaleate] | – | 6.34 | 5.07 |
| Cc1ccc(OCCN2CCCN(Cc3ccc4ccccc4n3)CC2)c2c1NC(=O)C2(C)C [Example 54, 3,3,7-Trimethyl-4-{2-[4-(2-quinolylmethyl)-1-homopiperazinyl]ethoxy}-2,3-dihydro-1H-indol-2-one] | – | 9.60 | 3.06 |
| Cc1ccc(OCCCN2CCCN(Cc3ccc4ccccc4n3)CC2)c2c1NC(=O)CC2 [Example 60, 8-Methyl-5-{3-[4-(2-quinolylmethyl)-1-homopiperazinyl]propoxy}-1,2,3,4-tetrahydroquinolin-2-one] | – | 8.26 | 5.06 |
| Cc1ccc(OCCN2CCCN(Cc3ccc4ccccc4n3)CC2)c2c1NC(=O)CC2 [Example 61, 8-Methyl-5-{2-[4-(2-quinolylmethyl)-1-homopiperazinyl]ethoxy}-1,2,3,4-tetrahydroquinolin-2-one] | 19 | 8.33 | 5.79 |
| CC1(C)C(=O)Nc2c(OCCCN3CCCN(Cc4ccc5ccccc5n4)CC3)cccc21 [Example 69, 3,3-Dimethyl-7-{3-[4-(2-quinolylmethyl)-1-homopiperazinyl]propoxy}-2,3-dihydro-1H-indol-2-one] | 25 | – | – |
| Cn1c(CN2CCCN(CCOc3ccc4c(c3)CCC(=O)N4)CC2)nc2ccccc21 [Example 75, 6-{2-[4-(N-Methylbenzoimidazol-2-ylmethyl)-1-homopiperazinyl]ethoxy}-1,2,3,4-tetrahydroquinolin-2-one] | – | 7.25 | 5.13 |
| O=C1CCc2cccc(OCCCCN3CCCN(Cc4ccc5ccccc5n4)CC3)c2N1 [Example 89, 8-{4-[4-(2-Quinolylmethyl)-1-homopiperazinyl]butoxy}-1,2,3,4-tetrahydroquinolin-2-one] | 21 | – | – |

Other lines, results leading:

| inhibition at 10 µM [1] [%] | pKi (H1 receptor) | pKi (LTD4 receptor) | Structure (SMILES) |
| --- | --- | --- | --- |
| – | 7.13 | 3.96 | Cn1c(CN2CCCN(CCOc3ccc4[nH]c(=O)ccc4c3)CC2)nc2ccccc21 [Example 77, 6-{2-[4-(N-Methylbenzoimidazol-2-ylmethyl)-1-homopiperazinyl]ethoxy}-1,2-dihydroquinolin-2-one] |
| 27 | 7.74 | 5.13 | CC1(C)C(=O)Nc2cc(OCCCN3CCCN(Cc4ccc5ccccc5n4)CC3)ccc21 [Example 78, 3,3-Dimethyl-6-{3-[4-(2-quinolylmethyl)-1-homopiperazinyl]propoxy}-2,3-dihydro-1H-indol-2-one] |
| 19 | – | – | O=C1CCc2ccc(OCCN3CCCN(Cc4ccc5ccccc5n4)CC3)cc2N1 [Example 81, 7-{2-[4-(2-Quinolylmethyl)-1-homopiperazinyl]ethoxy}-1,2,3,4-tetrahydroquinolin-2-one] |
| 26 | – | – | CCOCCn1c(CN2CCCN(CCCOc3ccc4c(c3)SCC(=O)N4)CC2)nc2ccccc21 [Example 83, 7-{3-[4-(N-Ethoxyethylbenzoimidazol-2-ylmethyl)-1-homopiperazinyl]-propoxy}-3,4-dihydro-2H-1,4-benzothiazin-3-one] |
| 12 | – | – | O=C1CCc2cccc(OCCCN3CCCN(Cc4ccc5ccccc5n4)CC3)c2N1 [Example 88, 8-{3-[4-(2-Quinolylmethyl)-1-homopiperazinyl]propoxy}-1,2,3,4-tetrahydroquinolin-2-one] |
| – | 7.15 | 5.23 | Cc1ccc(OCCN2CCN(Cc3ccc4ccccc4n3)CC2)c2c1NC(=O)C2(C)C [Example 93, 3,3,7-Trimethyl-4-{2-[4-(2-quinolylmethyl)-1-piperazinyl]ethoxy}-2,3-dihydro-1H-indol-2-one] |
| – | 6.73 | 4.80 | Cc1ccc(OCCCN2CCCN(Cc3ccc4ccccc4n3)CC2)c2c1NC(=O)C2(C)C [Example 97, 3,3,7-Trimethyl-4-{3-[4-(2-quinolylmethyl)-1-homopiperazinyl]propoxy}-2,3-dihydro-1H-indol-2-one] |
| 10 | – | – | O=C1CSc2cc(OCCCN3CCN(C(=O)c4ccc5ccccc5n4)CC3)ccc2N1 [Example 102, 7-{3-[4-(2-quinolylcarbonyl)piperazinyl]propoxy}-3,4-dihydro-2H-1,4-benzothiazin-3-one maleate] |
